Read-outs that look alike come from different tables or passages of the source.
Legend:
SARS-CoV-2 USA-WA1/2020 [1] = test: microbe, parasite or virus in culture; assay type: cell-based; settings: read-out: SARS-CoV-2 EC50
in vitro [2] = settings: African green monkey, uninfected Vero E6 cells
[3] = test system: subdomain IIB of the rev recognition element (RRE) of the HIV-1 genomic RNA; settings: cited from earlier work
HIV-1 = settings: cited from earlier work
in vitro [4] = settings: human, uninfected 293T-ACE2 cells
SARS-CoV-2 USA-WA1/2020 [5] = test: microbe, parasite or virus in culture; assay type: cell-based; settings: read-out: SARS-CoV-2 EC50; remark: listed apart in the source
SCoV2 USA-WA1/2020 = assay type: cell-based; settings: 293T-ACE2, MOI 2, 8-h single cycle
[6] = Severe acute respiratory syndrome coronavirus 2, Vero C1008, 48 h, Vero E6 cells, MOI 0.025, two days
[7] = ref 1 (Table S1 list: Prado et al. 2016)
[8] = ref 2 (Table S1 list: Prado et al. 2018)
[9] = ref 5 (Table S1 list: Sedgwick, Ph.D. thesis 2018)
[10] = ref 4 (Table S1 list: Medina-Trillo et al. 2020)
[11] = ref 3 (Table S1 list: Simba-Lahuasi et al., Unpublished results)
[12] = Vero E6 cells, MOI 0.025, two days
[13] = Severe acute respiratory syndrome coronavirus 2, Vero C1008, 48 h
[14] = Severe acute respiratory syndrome coronavirus 2, 293T/ACE2, 48 h

For O=C1c2c(O)ccc(O)c2C(=O)c2c(NCCNCCO)ccc(NCCNCCO)c21 [Mitoxantrone, reference compound], the EC50 (SARS-CoV-2 USA-WA1/2020 [1]; [6]) is given as 2.4 µM, the CC50 at 2 days (in vitro [2]) is given as 0.806 µM and the “Previous target RNA binding” value [3, 7] is given as “yes”. The “Previous target virus activity” value (HIV-1; [7]) was “yes”.

In the case of C=C(C)Cn1c(NCCCn2ccnc2)nc2c1c(=O)[nH]c(=O)n2C [17a5], the EC50 (SARS-CoV-2 USA-WA1/2020 [1]; [6]) is listed as > 20 µM, the CC50 at 2 days (in vitro [2]) is listed as > 20 µM and the “Previous target RNA binding” value [3, 8] is listed as “yes”. For the same compound, the “Previous target virus activity” value (HIV-1; [8]) was “yes”.

For Cc1cc(-c2c(CCN)cccc2CCN)cc(C)c1-c1cc(CCN)c(Oc2ccccc2)c(CCN)c1 [compound 6], the EC50 (SARS-CoV-2 USA-WA1/2020 [1]; [6]) is listed as > 20 µM, the CC50 at 2 days (in vitro [2]) is listed as > 20 µM and the “Previous target RNA binding” value [3, 9] is listed as “yes”. For the same compound, the “Previous target virus activity” value (HIV-1; [9]) was “yes”.

In the case of COc1ccc(-c2cc(C)c(-c3cc(CCN)c(OC)cc3CCN)cc2C)cc1CCN [3a], the EC50 (SARS-CoV-2 USA-WA1/2020 [1]; [6]) is listed as > 20 µM, the CC50 at 2 days (in vitro [2]) is listed as > 20 µM and the “Previous target RNA binding” value [3, 10] is listed as “yes”. For the same compound, the “Previous target virus activity” value (HIV-1; [10]) was “yes”.

In the case of Cc1cc(-c2cc(CCN)ccc2CCN)c(C)cc1-c1ccccc1CCN [compound 4], the EC50 (SARS-CoV-2 USA-WA1/2020 [1]; [6]) is listed as > 20 µM, the CC50 at 2 days (in vitro [2]) is listed as > 20 µM and the “Previous target RNA binding” value [3, 10] is listed as “yes”. For the same compound, the “Previous target virus activity” value (HIV-1; [10]) was “yes”.

In the case of Trans-clomiphene, the “Previous target RNA binding” value ([3]; ref Unpublished) is given as “yes” and the “Previous target virus activity” value (HIV-1; ref Unpublished) is given as “yes”.

For CCN(CC)CCOc1ccc(C(O)(Cc2ccc(Cl)cc2)c2ccc(C)cc2)cc1 (centres unmarked) [Triparanol, reference compound], the EC50 (SARS-CoV-2 USA-WA1/2020 [1]; [6]) is listed as 0.811 µM, the CC50 at 2 days (in vitro [2]) is listed as > 20 µM and the “Previous target RNA binding” value [3, 11] is listed as “yes”. The “Previous target virus activity” value (HIV-1; [11]) was “yes”.

In the case of Cc1cc(-c2c(CCNC(=N)N)cccc2CCNC(=N)N)cc(C)c1-c1cc(CCCNC(=N)N)cc(CCCNC(=N)N)c1 [compound 18], the EC50 (SARS-CoV-2 USA-WA1/2020 [1]; [6]) is given as > 20 µM, the CC50 at 2 days (in vitro [2]) is given as > 20 µM and the “Previous target RNA binding” value [3, 9] is given as “yes”. The “Previous target virus activity” value (HIV-1; [9]) was “yes”.

In the case of Cc1cc(-c2c(CCN)cccc2CCN)cc(C)c1-c1cc(CCCN)c(O)c(CCCN)c1 [compound 11], the EC50 (SARS-CoV-2 USA-WA1/2020 [1]; [6]) is listed as > 20 µM, the CC50 at 2 days (in vitro [2]) is listed as > 20 µM and the “Previous target RNA binding” value [3, 9] is listed as “yes”. The “Previous target virus activity” value (HIV-1; [9]) was “yes”.

In the case of CN(C)CCOc1ccc(C(=C(CCO)c2ccccc2)c2ccccc2)cc1 [βOH-tamoxifen], the EC50 (SARS-CoV-2 USA-WA1/2020 [1]; [6]) is given as 5.4 µM, the CC50 at 2 days (in vitro [2]) is given as 22.2 µM and the “Previous target RNA binding” value ([3]; ref Unpublished) is given as “yes”. For the same compound, the “Previous target virus activity” value (HIV-1; ref Unpublished) was “yes”.

In the case of CN(C)CCOc1cc2c(c3ccccc13)-c1ccccc1C2=O [1a], the EC50 (SARS-CoV-2 USA-WA1/2020 [1]; [12]) is given as > 20 µM, the “Previous target RNA binding” value [3, 8] is given as “yes” and the “Previous target RNA binding” value [3, 10] is given as “yes”. For the same compound, the “Previous target virus activity” value (HIV-1; [8]) was “yes” and the “Previous target virus activity” value (HIV-1; [10]) was “yes”.

For Fc1nc(N2CCNCC2)c(F)c(Sc2ccc(Cl)cc2)c1F [2a], the EC50 (SARS-CoV-2 USA-WA1/2020 [1]; [13]) was 6.24 µM, the CC50 at 2 days (in vitro [2]) was > 20 µM and the CC50 at 2 days (in vitro [4]) was 5.32 µM. The EC50 (SARS-CoV-2 USA-WA1/2020 [5]; [14]) was 630 nM, the “Previous target RNA binding” value [3, 8] was “yes” and the “Previous target virus activity” value (HIV-1; [8]) was “yes”.

For CN1CCC(=C2c3ccccc3C=Cc3ccccc32)CC1 [Cyprohetadine, reference compound], the CC50 at 2 days (in vitro [2]) is listed as > 20 µM, the “Previous target RNA binding” value [3, 7] is listed as “yes” and the “Previous target virus activity” value (HIV-1; [7]) is listed as “yes”.

Work on CCN(CC)CCNc1cc(-c2cccs2)nc2ccccc12 [1d] yielded an EC50 (SARS-CoV-2 USA-WA1/2020 [1]; [6]) of 6.64 µM, an EC50 (SARS-CoV-2 USA-WA1/2020 [1]; [12]) of 6.24 µM and a CC50 at 2 days (in vitro [4]) of 7.5 µM. The “Previous target RNA binding” value [3, 8] was “yes” and the “Previous target virus activity” value (HIV-1; [8]) was “yes”.

In the case of CCC(=C(c1ccccc1)c1ccc(OCCN(C)C)cc1)c1ccc(O)cc1 [4'OH-tamoxifen], the EC50 (SARS-CoV-2 USA-WA1/2020 [1]; [6]) is given as 0.74 µM, the CC50 at 2 days (in vitro [2]) is given as 2.7 µM and the “Previous target RNA binding” value ([3]; ref Unpublished) is given as “yes”. For the same compound, the “Previous target virus activity” value (HIV-1; ref Unpublished) was “yes”.

For CCC(=C(c1ccc(OC)cc1)c1ccc(OC)cc1)c1cn(CC(O)CN(C)C)c2ccccc12 (centres unmarked) [Bisphenylindol], the EC50 (SARS-CoV-2 USA-WA1/2020 [1]; [6]) is listed as 2.1 µM, the “Previous target RNA binding” value [3, 11] is listed as “yes” and the “Previous target virus activity” value (HIV-1; [11]) is listed as “yes”.

In the case of CCC(=C(c1ccccc1)c1ccc(OCCN(C)CCOc2ccc(C(=C(CC)c3ccccc3)c3ccccc3)cc2)cc1)c1ccccc1 [Tamoxifen dimer], the EC50 (SARS-CoV-2 USA-WA1/2020 [1]; [6]) is listed as > 20 µM, the CC50 at 2 days (in vitro [2]) is listed as > 20 µM and the “Previous target RNA binding” value ([3]; ref Unpublished) is listed as “yes”. The “Previous target virus activity” value (HIV-1; ref Unpublished) was “no”.

In the case of CCC(CC)COC(=O)[C@H](C)N[P@](=O)(OC[C@H]1O[C@@](C#N)(c2ccc3c(N)ncnn23)[C@H](O)[C@@H]1O)Oc1ccccc1 [Remdesivir, reference compound], the EC50 (SARS-CoV-2 USA-WA1/2020 [1]; [13]) is reported as 0.428 µM, the CC50 at 2 days (in vitro [2]) is reported as > 20 µM and the CC50 at 2 days (in vitro [4]) is reported as > 2 µM. For the same compound, the EC50 (SARS-CoV-2 USA-WA1/2020 [5]; [14]) was 10.4 nM and the “inhibition when added at +4 h” value (SCoV2 USA-WA1/2020) was “decreased”.

In the case of CC1CN(C(c2ccccc2)(c2ccccc2)c2ccccc2)CCN1 (centres unmarked) [Trityl-piperazine], the EC50 (SARS-CoV-2 USA-WA1/2020 [1]; [6]) is reported as 0.644 µM, the CC50 at 2 days (in vitro [2]) is reported as 2.22 µM and the CC50 at 2 days (in vitro [4]) is reported as > 3.67 µM. For the same compound, the EC50 (SARS-CoV-2 USA-WA1/2020 [5]; Severe acute respiratory syndrome coronavirus 2, 48 h, 293T-ACE2 cells, MOI 0.25, two days) was 270 nM, the “Previous target RNA binding” value [3, 11] was “yes” and the “Previous target virus activity” value (HIV-1; [11]) was “yes”.

In the case of OC(CNCC1CCCO1)Cn1c2ccc(Br)cc2c2cc(Br)ccc21 (centres unmarked) [1b], the “Previous target RNA binding” value [3, 8] is given as “yes”, the “Previous target RNA binding” value [3, 10] is given as “yes” and the “Previous target virus activity” value (HIV-1; [8]) is given as “yes”. The “Previous target virus activity” value (HIV-1; [10]) was “no”.

For COc1ccc(-c2ccc(-c3ccc(O)c(CCN)c3)c(C)c2)c(CCN)c1 [compound 1], the EC50 (SARS-CoV-2 USA-WA1/2020 [1]; [6]) is listed as > 20 µM, the CC50 at 2 days (in vitro [2]) is listed as > 20 µM and the “Previous target RNA binding” value [3, 9] is listed as “yes”.

For O=C(O)c1cn(C2CC2)c2cc(N3CCNCC3)c(F)cc2c1=O [Cyprofloxacine, reference compound], the EC50 (SARS-CoV-2 USA-WA1/2020 [1]; [6]) is listed as > 20 µM, the “Previous target RNA binding” value [3, 7] is listed as “yes” and the “Previous target virus activity” value (HIV-1; [7]) is listed as “yes”.

Reference: article PMC9784969, “SARS-CoV-2 Inhibitors Identified by Phenotypic Analysis of a Collection of Viral RNA-Binding Molecules” (Pharmaceuticals, 2022)
